The test system of one series is A. niger. In words: accelerated shelf-life testing (ASLT): time of appearance (TOA) of A. niger on inoculated breadcrumbs. It counts as cell-based, Aspergillus niger. Here is the method:
(§1) Breads were made by mixing the dough ingredients from Table 1. The wt.% for several ingredients are given based on flour weight (Flour Weight Based, FWB). For the prepared recipes the difference with total dry weight is insubstantial. The following breads were prepared: a control without any preservatives, a reference containing 0.3% flour weight based (FWB) calcium propionate (CalPro), and a bread containing 1% chitosan (KitoZyme, Belgium) with number average MW of 15 kDa and degree of deacetylation (DDA) of 70%. The chitosan sample was obtained from cell wall of A. niger (KitoZyme, Belgium). Ingredients were mixed using a spiral mixer for 10 minutes. Afterwards the dough for each trial was divided into three pieces of 520 g, rounded manually, and placed into bread tins. The dough pieces were placed in a proofing cabinet to rise at 40 °C and 80% relative humidity until they reach similar height (fermentation time between 60-70 min). The breads were baked for 22 minutes in a deck oven at 260 (bottom) and 230 (top) °C. [Table 1] Bread recipes
(§2) Following baking, the breads were cooled in a HEPA-filtered chamber for 90 min. One bread was used for pH measurement and two breads were subjected to ASLT.
To perform ASLT, the remaining two breads were sliced to 13 mm slices. The crumb (inner part of breads) of three random slices from each bread were cut out using a cookie cutter (3.2 cm diameter) and placed in sterile 6-well plates (2x breads x 3 slices). Two 6-well plates were prepared per bread type. Each bread piece in a 6-well plate was inoculated with 3 aliquots of ±500 spores ([…]) of either A. niger or P. paneum. Therefore, 18 spots of each mould were inoculated per trial (6 bread piece × 3 aliquots). Freeze-dried spores were used in all experiments. The inoculated breads incubated at room temperature of around 21 °C until visible mould appearance. The appearance of the moulds was imaged by taking photographs. The images were inspected visually, and the TOA was defined as mould appearance in hours after mould inoculation. […]

The subject of the next series is P. paneum. Briefly: accelerated shelf-life testing (ASLT): time of appearance (TOA) and growth pattern of P. paneum on inoculated breadcrumbs. The format is cell-based, Penicillium paneum. The note with it: CalPro 0.3% FWB; tin bread crumb, ±500 spores; Figure 1. Here is the method: as §1, §2
To perform ASLT, the remaining two breads were sliced to 13 mm slices. […]

For series [1] the following is noted: cited from earlier work.

With `CCC(=O)[O-].CCC(=O)[O-].[Ca+2]` [CalPro, calcium propionate], in the series with A. niger (CalPro 0.3% FWB vs chitosan 1% FWB), the “effectiveness against A. niger, CalPro compared to chitosan” value is reported as “more effective against A. niger”. For the same compound, the “increased TOA of A. niger compared to control bread without preservatives” value in the series with A. niger (CalPro 0.3% FWB, tin bread crumb, ±500 spores, Figure 1A) is reported as 80%. The “increase in TOA of A. niger compared to control without preservative” value with A. niger (CalPro alone 0.3% FWB, Figure 2 A-B) was “approximately 50%”. Also, in the series on P. paneum, the “increased TOA of P. paneum compared to control bread without preservatives” value worked out at 17%.

On to `CC(O)C(=O)O` (stereo not drawn) [lactic acid], for which, in series [1], the pKa result is listed as “about 3.85”.

Consider `C/C=C/C=C/C(=O)O` [sorbic acid], for which, in series [1], the pKa entry is recorded as “about 4.76”.

These data come from patent publication EP4516107A1, “CHITOSAN AND ORGANIC ACID HAVING A PKA OF 4 OR MORE, OR A SALT THEREOF IN BAKERY PRODUCTS” (Mauri Technology B.V., priority 2023, dated 2025).
